According to PubChem BioAssay AID1259407 (Chemical Carcinogenesis Research Information System (CCRIS), 2018):
Active and inactive are the calls of the source. No rule for the calls is given here.

Test system: CCRIS mutagenicity, Ames/micronucleus/aberration tests
Assay: CCRIS mutagenicity studies
Text: The CCRIS database contains chemical records with carcinogenicity, mutagenicity, tumor promotion, and tumor inhibition test results. It was developed by the National Cancer Institute (NCI). Data are derived from studies cited in primary journals, current awareness tools, NCI reports, and other sources. Test results have been reviewed by experts in carcinogenesis and mutagenesis.
CCRIS provides historical information from the years 1985 - 2011. It is no longer updated.
This is an archive assay for CCRIS mutagenicity studies.

## Nc1ccccc1
End Point: IN VITRO CHROMOSOMAL ABERRATIONS, Test System: CHINESE HAMSTER OVARY CELLS, Metabolic Activation: NONE
  mutagenic call: inactive; negative
End Point: IN VITRO CHROMOSOMAL ABERRATIONS, Test System: CHINESE HAMSTER OVARY CELLS, Metabolic Activation: RAT, LIVER, S-9, AROCLOR 1254
  mutagenic call: active; positive
End Point: IN VITRO MICRONUCLEUS, Test System: CHL/IU CELLS, Metabolic Activation: RAT, LIVER, S-9, PHENOBARBITAL AND 5,6-BENZOFLAVONE
  mutagenic call: active; positive
End Point: IN VIVO MICRONUCLEUS, Test System: BONE MARROW, Species: MOUSE, Strain/Sex: B6C3F1/MALE, Route: GAVAGE
  mutagenic call: active; positive
End Point: In vivo chromosomal aberrations, Test System: Bone marrow erythrocytes, Species: Rat, Strain/Sex: PVG/Male, Route: Oral
  mutagenic call: active; positive (structural changes) at 500 mg/kg (p<0.01)
End Point: In vivo micronucleus, Test System: Bone marrow erythrocytes, Species: Mouse, Strain/Sex: CRH/Male, Route: Intraperitoneal
  mutagenic call: active; positive (p<0.05)
Test System: AMES SALMONELLA TYPHIMURIUM, Strain/Indicator: TA97, Metabolic Activation: NONE, Method: STANDARD PLATE
  mutagenic call: inactive; negative
Test System: AMES SALMONELLA TYPHIMURIUM, Strain/Indicator: TA97, Metabolic Activation: RAT, LIVER, S-9, AROCLOR 1254, Method: STANDARD PLATE
  mutagenic call: inactive; negative
Test System: AMES SALMONELLA TYPHIMURIUM, Strain/Indicator: TA98(NR), Metabolic Activation: NONE, Method: PREINCUBATION
  mutagenic call: inactive; negative
Test System: AMES SALMONELLA TYPHIMURIUM, Strain/Indicator: TA98(NR), Metabolic Activation: RAT, LIVER, S-9, AROCLOR 1254, Method: PREINCUBATION
  mutagenic call: inactive; negative
Test System: AMES SALMONELLA TYPHIMURIUM, Strain/Indicator: TA98, Metabolic Activation: HAMSTER, LIVER, S-9, AROCLOR 1254, Method: STANDARD PLATE
  mutagenic call: inactive; negative
Test System: AMES SALMONELLA TYPHIMURIUM, Strain/Indicator: TA98, Metabolic Activation: HAMSTER, LIVER, S-9, Method: STANDARD PLATE
  mutagenic call: inactive; negative
Test System: AMES SALMONELLA TYPHIMURIUM, Strain/Indicator: TA98, Metabolic Activation: MOUSE, LIVER, S-9, AROCLOR 1254, Method: STANDARD PLATE
  mutagenic call: inactive; negative
Test System: AMES SALMONELLA TYPHIMURIUM, Strain/Indicator: TA98, Metabolic Activation: MOUSE, LIVER, S-9, Method: STANDARD PLATE
  mutagenic call: inactive; negative
Test System: AMES SALMONELLA TYPHIMURIUM, Strain/Indicator: TA98, Metabolic Activation: NONE, Method: STANDARD PLATE
  mutagenic call: inactive; negative
Test System: AMES SALMONELLA TYPHIMURIUM, Strain/Indicator: TA98, Metabolic Activation: PEA APICAL BUD S-9, Method: PREINCUBATION
  mutagenic call: inactive; negative
Test System: AMES SALMONELLA TYPHIMURIUM, Strain/Indicator: TA98, Metabolic Activation: PEA APICAL BUD S-9, Method: STANDARD PLATE
  mutagenic call: inactive; negative
Test System: AMES SALMONELLA TYPHIMURIUM, Strain/Indicator: TA98, Metabolic Activation: RAT, LIVER, S-9, AROCLOR 1254, Method: STANDARD PLATE
  mutagenic call: inactive; negative
Test System: AMES SALMONELLA TYPHIMURIUM, Strain/Indicator: TA98, Metabolic Activation: RAT, LIVER, S-9, ETHANOL, Method: PREINCUBATION
  mutagenic call: inactive; negative
Test System: AMES SALMONELLA TYPHIMURIUM, Strain/Indicator: TA98, Metabolic Activation: RAT, LIVER, S-9, PHENOBARBITAL, Method: PREINCUBATION
  mutagenic call: inactive; negative
Test System: AMES SALMONELLA TYPHIMURIUM, Strain/Indicator: TA98, Metabolic Activation: RAT, LIVER, S-9, PYRAZOLE, Method: PREINCUBATION
  mutagenic call: inactive; negative
Test System: AMES SALMONELLA TYPHIMURIUM, Strain/Indicator: TA98, Metabolic Activation: RAT, LIVER, S-9, Method: STANDARD PLATE
  mutagenic call: inactive; negative
Test System: AMES SALMONELLA TYPHIMURIUM, Strain/Indicator: TA100(NR), Metabolic Activation: NONE, Method: PREINCUBATION
  mutagenic call: inactive; negative
Test System: AMES SALMONELLA TYPHIMURIUM, Strain/Indicator: TA100(NR), Metabolic Activation: RAT, LIVER, S-9, AROCLOR 1254, Method: PREINCUBATION
  mutagenic call: inactive; negative
Test System: AMES SALMONELLA TYPHIMURIUM, Strain/Indicator: TA100, Metabolic Activation: HAMSTER, LIVER, S-9, AROCLOR 1254, Method: STANDARD PLATE
  mutagenic call: inactive; negative
Test System: AMES SALMONELLA TYPHIMURIUM, Strain/Indicator: TA100, Metabolic Activation: HAMSTER, LIVER, S-9, Method: STANDARD PLATE
  mutagenic call: inactive; negative
Test System: AMES SALMONELLA TYPHIMURIUM, Strain/Indicator: TA100, Metabolic Activation: MOUSE, LIVER, S-9, AROCLOR 1254, Method: STANDARD PLATE
  mutagenic call: inactive; negative
Test System: AMES SALMONELLA TYPHIMURIUM, Strain/Indicator: TA100, Metabolic Activation: MOUSE, LIVER, S-9, Method: STANDARD PLATE
  mutagenic call: inactive; negative
Test System: AMES SALMONELLA TYPHIMURIUM, Strain/Indicator: TA100, Metabolic Activation: NONE, Method: STANDARD PLATE
  mutagenic call: inactive; negative
Test System: AMES SALMONELLA TYPHIMURIUM, Strain/Indicator: TA100, Metabolic Activation: PEA APICAL BUD S-9, Method: PREINCUBATION
  mutagenic call: inactive; negative
Test System: AMES SALMONELLA TYPHIMURIUM, Strain/Indicator: TA100, Metabolic Activation: PEA APICAL BUD S-9, Method: STANDARD PLATE
  mutagenic call: inactive; negative
Test System: AMES SALMONELLA TYPHIMURIUM, Strain/Indicator: TA100, Metabolic Activation: RAT, LIVER, S-9, AROCLOR 1254, Method: PREINCUBATION
  mutagenic call: inactive; negative
Test System: AMES SALMONELLA TYPHIMURIUM, Strain/Indicator: TA100, Metabolic Activation: RAT, LIVER, S-9, AROCLOR 1254, Method: STANDARD PLATE
  mutagenic call: inactive; negative
Test System: AMES SALMONELLA TYPHIMURIUM, Strain/Indicator: TA100, Metabolic Activation: RAT, LIVER, S-9, ETHANOL, Method: PREINCUBATION
  mutagenic call: inactive; negative
Test System: AMES SALMONELLA TYPHIMURIUM, Strain/Indicator: TA100, Metabolic Activation: RAT, LIVER, S-9, PHENOBARBITAL, Method: PREINCUBATION
  mutagenic call: inactive; negative
Test System: AMES SALMONELLA TYPHIMURIUM, Strain/Indicator: TA100, Metabolic Activation: RAT, LIVER, S-9, PYRAZOLE, Method: PREINCUBATION
  mutagenic call: inactive; negative
Test System: AMES SALMONELLA TYPHIMURIUM, Strain/Indicator: TA100, Metabolic Activation: RAT, LIVER, S-9, Method: STANDARD PLATE
  mutagenic call: inactive; negative
Test System: AMES SALMONELLA TYPHIMURIUM, Strain/Indicator: TA102, Metabolic Activation: RAT, LIVER, S-9, AROCLOR 1254, Method: STANDARD PLATE
  mutagenic call: inactive; negative
Test System: AMES SALMONELLA TYPHIMURIUM, Strain/Indicator: TA102, Metabolic Activation: RAT, LIVER, S-9, PYRAZOLE, Method: PREINCUBATION
  mutagenic call: inactive; negative
Test System: AMES SALMONELLA TYPHIMURIUM, Strain/Indicator: TA1535, Metabolic Activation: HAMSTER, LIVER, S-9, AROCLOR 1254, Method: STANDARD PLATE
  mutagenic call: inactive; negative
Test System: AMES SALMONELLA TYPHIMURIUM, Strain/Indicator: TA1535, Metabolic Activation: HAMSTER, LIVER, S-9, Method: STANDARD PLATE
  mutagenic call: inactive; negative
Test System: AMES SALMONELLA TYPHIMURIUM, Strain/Indicator: TA1535, Metabolic Activation: MOUSE, LIVER, S-9, AROCLOR 1254, Method: STANDARD PLATE
  mutagenic call: inactive; negative
Test System: AMES SALMONELLA TYPHIMURIUM, Strain/Indicator: TA1535, Metabolic Activation: MOUSE, LIVER, S-9, Method: STANDARD PLATE
  mutagenic call: inactive; negative
Test System: AMES SALMONELLA TYPHIMURIUM, Strain/Indicator: TA1535, Metabolic Activation: NONE, Method: STANDARD PLATE
  mutagenic call: inactive; negative
Test System: AMES SALMONELLA TYPHIMURIUM, Strain/Indicator: TA1535, Metabolic Activation: RAT, LIVER, S-9, AROCLOR 1254, Method: STANDARD PLATE
  mutagenic call: inactive; negative
Test System: AMES SALMONELLA TYPHIMURIUM, Strain/Indicator: TA1535, Metabolic Activation: RAT, LIVER, S-9, PYRAZOLE, Method: PREINCUBATION
  mutagenic call: inactive; negative
